The subject of one data set is CYP3A4. Details: method as in PMID 30301254. The note with it: statistical significance p < 0.1; cited from earlier work.
In data set [1] the target is T1, CYP2A6 (Homo sapiens, UniProt P11509).
T1 sequence (P11509 1-494): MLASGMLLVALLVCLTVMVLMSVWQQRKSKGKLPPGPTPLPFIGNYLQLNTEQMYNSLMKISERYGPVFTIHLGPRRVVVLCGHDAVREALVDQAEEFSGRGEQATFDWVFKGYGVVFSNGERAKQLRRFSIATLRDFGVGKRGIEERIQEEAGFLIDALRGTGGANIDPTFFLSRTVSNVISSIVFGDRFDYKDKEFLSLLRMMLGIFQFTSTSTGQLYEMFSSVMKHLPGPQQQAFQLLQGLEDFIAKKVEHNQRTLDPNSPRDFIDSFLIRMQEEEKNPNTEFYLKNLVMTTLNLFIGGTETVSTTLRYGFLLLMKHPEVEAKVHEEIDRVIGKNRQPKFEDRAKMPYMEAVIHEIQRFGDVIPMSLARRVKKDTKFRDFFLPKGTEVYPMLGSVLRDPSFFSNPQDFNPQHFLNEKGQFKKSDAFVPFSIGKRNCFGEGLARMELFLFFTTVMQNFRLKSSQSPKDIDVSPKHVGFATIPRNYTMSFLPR
Description: CYP2A6 enzyme activity, coumarin 7-hydroxylation (MDI, TDI, DI assays), recombinant baculosomes. The note with it: for Inhibition of CYP2A6 enzyme activity / activity at 30 min, 1 µM: 1 µM flavonoid; for activity at 30 min, 1 µM: human, pH 7.4, probe coumarin (7-hydroxylation), 10 µM, Residual CYP2A6 enzyme activity. As to the method: (§1) The recombinant baculosomes with hyperexpressed cytochromes P450 (1A2, 2A6, 2C8, and 2D6) and coexpressed NADPH cytochrome P450 reductase and cytochrome b5 were used as a source of enzyme. Baculosomes were commercially obtained from Thermo Fisher Scientific (Waltham, MA, USA), and all other chemicals from Sigma-Aldrich if not otherwise indicated. A 1.0 M solution phosphate buffer of pH 7.4 was prepared in house. NADPH generating system was prepared of 0.1 M glucose-6-phosphate, 10 mg mL^−1 NADP^+, and 1000 IU mL^−1 glucose-6-phosphate dehydrogenase in ratio 100:50:2 (v/v/v).
The aromatic hydroxylation of coumarin at the position 7 was used as a marker reaction for CYP2A6. The incubation conditions were the same as for CYP1A2 enzyme (vide supra) unless otherwise stated. The final concentration of coumarin was 10 µM, while the incubation time was extended to 30 min.
HPLC-DAD analysis was conducted on the same system as the CYP1A2 enzyme with the following modifications: The gradient timetable (t/min, %B) was (0, 20), (1.5, 20), (10, 70), (11, 20), (17, 20), and the detection wavelength was 330 nm. The retention time of the substrate (coumarin) was 7.5 min, while the product (7-hydroxycoumarin) was detected at 4.8 min. The amount of generated product was determined as the area under the curve based on the calibration curve of the standard.
(§2) Three types of experiments were conducted to determine metabolism dependent inhibition, time dependent inhibition, and direct inhibition of CYP1A2, CYP2A6, CYP2C8, and CYP2D6 enzymes.
(§3) To determine metabolism dependent inhibition (MDI assay), the flavonoid was first preincubated with the enzyme with the addition of the generating system for 30 min, after which the marker substrate was added to determine residual enzyme activity (as described above for each enzyme).
(§4) If metabolism dependent inhibition was determined, time dependent inhibition and direct inhibition were tested. Time dependent inhibition (TDI assay) was assessed by preincubating the flavonoid and enzyme, without the generating system, after which residual activity was determined by adding the NADPH generating system along with the substrate (as described above for each enzyme).
(§5) The direct inhibition assay (DI assay) was conducted without preincubation, i.e., the NADPH generating system was added to the incubation mixture containing flavonoid and substrate following the experimental set-up described above for each individual cytochrome P450 enzyme.
(§6) Pure time dependent inhibitors require time to interact with the enzyme. Thus, TDI inhibitors will show a reduction of enzyme activity in assays with preincubations, i.e., the MDI and TDI assays, but not in the DI assay (no preincubation). […] DI inhibitors will reduce enzyme activity in all three assays (MDI, TDI, and DI).
(§7) All incubations were conducted in triplicate. The results are expressed as the residual activity of the enzyme, i.e., the percentage of product generated in incubation with the addition of flavonoid in ratio to the control without flavonoid. The statistical significance was tested with Student’s t-test in the program R (The R Project for Statistical Computing, Vienna, Austria).

The subject of data set [2] is CYP2A6. The note with it: ref 31 (Boonruanga et al.), cited from earlier work.
Another data set concerns the target T2, CYP2C8 (Homo sapiens, UniProt P10632).
T2 construct: purchased Thermo Fisher Scientific; host or cells: baculosomes
T2 sequence (P10632 1-490): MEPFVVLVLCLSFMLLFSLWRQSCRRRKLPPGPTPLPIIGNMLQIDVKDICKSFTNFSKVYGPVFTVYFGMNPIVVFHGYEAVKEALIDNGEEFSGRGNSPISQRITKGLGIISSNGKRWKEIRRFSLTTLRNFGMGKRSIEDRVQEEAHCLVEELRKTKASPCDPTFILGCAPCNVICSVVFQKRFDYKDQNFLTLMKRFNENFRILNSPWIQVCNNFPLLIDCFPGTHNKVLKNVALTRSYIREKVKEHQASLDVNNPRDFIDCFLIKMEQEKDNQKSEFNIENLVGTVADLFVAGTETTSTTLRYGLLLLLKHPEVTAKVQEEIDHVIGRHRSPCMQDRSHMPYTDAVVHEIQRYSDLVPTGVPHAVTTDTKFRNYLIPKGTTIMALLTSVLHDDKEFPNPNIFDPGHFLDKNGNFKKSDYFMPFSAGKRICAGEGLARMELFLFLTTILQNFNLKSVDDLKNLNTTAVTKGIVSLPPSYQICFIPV
Put plainly: CYP2C8 enzyme activity, paclitaxel 6α-hydroxylation (MDI, TDI, DI assays), recombinant baculosomes. It counts as biochemical. The note with it: for Inhibition of CYP2C8 paclitaxel 6-α-hydroxylation / CYP2C8 enzyme activity in the TDI assay: 1 µM flavonoid; for Type of CYP2C8 inhibition: concluded from MDI, TDI, DI assays at 1 µM. The procedure:
as §1
Paclitaxel 6α-hydroxylation was used as a marker reaction for monitoring CYP2C8 enzyme activity (Figure 2). The incubation conditions were the same as for CYP1A2 enzyme (vide supra) unless otherwose stated. The final concentration of paclitaxel was 20 µM, while the incubation time was set to 30 min.
HPLC-DAD analysis was conducted on the same system as the CYP1A2 enzyme with the following modifications: The gradient timetable (t/min, %B) was (0, 50), (2, 50), (10, 90), (11, 50), (17, 50), and the detection wavelength was 227 nm. […] The amount of generated product was determined as the area under the curve based on the calibration curve of the standard.
as §2, §3, §4, §5, §6, §7

The target of a further data set is T3, CYP1A2 (Homo sapiens, UniProt P05177).
T3 sequence (P05177 1-516): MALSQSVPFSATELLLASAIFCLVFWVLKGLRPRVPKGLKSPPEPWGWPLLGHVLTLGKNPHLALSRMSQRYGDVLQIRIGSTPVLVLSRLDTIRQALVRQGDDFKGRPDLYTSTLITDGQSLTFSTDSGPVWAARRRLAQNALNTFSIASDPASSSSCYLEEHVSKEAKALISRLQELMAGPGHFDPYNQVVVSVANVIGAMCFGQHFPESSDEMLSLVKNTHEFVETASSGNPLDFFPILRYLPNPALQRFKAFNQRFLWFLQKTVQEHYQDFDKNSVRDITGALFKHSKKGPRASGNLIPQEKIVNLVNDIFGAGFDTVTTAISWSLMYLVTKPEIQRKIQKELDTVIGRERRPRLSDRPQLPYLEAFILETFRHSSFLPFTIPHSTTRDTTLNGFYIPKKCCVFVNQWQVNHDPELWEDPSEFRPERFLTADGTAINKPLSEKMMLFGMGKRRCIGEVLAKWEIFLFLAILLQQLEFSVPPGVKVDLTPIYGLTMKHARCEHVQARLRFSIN
Put plainly: CYP1A2 enzyme activity, phenacetin O-deethylation (MDI, TDI, DI assays), recombinant baculosomes. The note with it: 1 µM flavonoid. As to the method:
as §1
Phenacetine O-deethylation was used as a marker reaction for monitoring CYP1A2 enzyme activity (Figure 2). Incubations of 100 µL were conducted at the temperature of 37 °C. The pH of the incubation mixture was set at 7.4 using a potassium phosphate buffer (final concentration 50 mM). The total amount of CYP1A2 enzyme was 5 pmol, and the final concentration of substrate was 150 µM. Residual activity was determined by incubating the flavonoid (1 µM) with phenacetine as a substrate for 15 min, with or without preincubation, depending of the type of inhibition assay. Reactions were started by the addition of 15 µL of NADPH generating system, while the reactions were stopped by the addition of 1 mL 1% formic acid in acetonitrile. After centrifugation (10 min, 1900× g), the clear solution was transferred to a vial for HPLC analysis.
HPLC analysis was performed on Agilent 1100 instrument (Santa Clara, CA, USA) coupled with a diode array detector (DAD) on Luna C18 column (4.6 × 150 mm, 3 μm). The gradient method was used for separation. Mobile phase A consisted of water, acetonitrile, and glacial acetic acid in the volume ratio of 90:10:0.1, while mobile phase B contained the same solvents in the ratio 10:90:0.1. The following gradient timetable was used (t/min, %B): (0, 0), (2, 0), (13, 55), (14, 0), (20, 0). The flow rate was 1 mL/min, and chromatograms were recorded at 254 nm. Volume of incubation injected to the column was 15 µL. […] The amount of generated product (acetaminophen) was determined as the area under the curve based on the calibration curve of the standard.
as §2, §3, §4, §5, §6
All incubations were conducted in triplicate. The results are expressed as the residual activity of the enzyme, i.e., the percentage of product generated in incubation with the addition of flavonoid in ratio to the control without flavonoid.

For the next data set, the system named is rat liver microsomes. Set-up: method as in ref 24 (Siess et al.). The note with it: ref 24 (Siess et al.), cited from earlier work.

Where two headings read alike, the source gives them in different places.

Turning to `COc1ccc(-c2cc(=O)c3c(O)cc(O)cc3o2)cc1` [acacetin], the “Inhibition of CYP3A4 metabolic activity” value in the data set with CYP3A4 is “inhibition”.

Usually IC50 stands for the concentration at which inhibition is half-maximal. Take `O=c1cc(-c2ccc(O)cc2)oc2cc(O)cc(O)c12` [apigenin]: the “Inhibition of CYP2A6 enzyme activity” value at CYP2A6 [1] is listed as “inhibited”. Further, the activity at 30 min, 1 µM at CYP2A6 [1] (direct inhibition (DI) assay) came to 48 ± 1%; at CYP2A6 [1] (metabolism dependent inhibition (MDI) assay, coumarin 10 µM), 47 ± 7%. The IC50 in the data set on CYP2A6 [2] (read-out: IC50, direct inhibition assay) was 900 ± 70 nM; in the data set on CYP2A6 [2] (read-out: IC50, metabolism dependent inhibition assay), 770 ± 160 nM.

In the case of `COc1cc(OC)c2c(=O)cc(-c3ccccc3)oc2c1` [chrysin-dimethylether], at CYP2C8, the “Inhibition of CYP2C8 paclitaxel 6-α-hydroxylation” value is “inhibition”; the “CYP2C8 enzyme activity in the TDI assay” value is “reduction of enzyme activity was not observed”; the “Type of CYP2C8 inhibition” value is “mixed reversible and irreversible inhibitors”. Further, the “Inhibition of CYP3A4 metabolic activity” value in the data set on CYP3A4 is given as “inhibition”.

With `O=c1cc(-c2ccccc2)oc2ccccc12` [flavone], the “Inhibition of CYP3A4 metabolic activity” value with CYP3A4 was “inhibition”.

Turning to `O=c1c(O)c(-c2ccccc2)oc2cc(O)cc(O)c12` [galangin], the “Inhibition of CYP2A6 enzyme activity” value on CYP2A6 [1] is reported as “inhibited”. Further, at CYP2C8, the “Inhibition of CYP2C8 paclitaxel 6-α-hydroxylation” value is “inhibition”; the “CYP2C8 enzyme activity in the TDI assay” value is “reduction of enzyme activity was not observed”; the “Type of CYP2C8 inhibition” value is “mixed reversible and irreversible inhibitors”. Besides, the “Inhibition of CYP3A4 metabolic activity” value with CYP3A4 was “inhibition”.

As to `COc1ccc([C@@H]2CC(=O)c3c(O)cc(O)cc3O2)cc1O` [hesperetin], in the data set on CYP3A4, the “Inhibition of CYP3A4 metabolic activity” value is “inhibition”.

Turning to `O=c1c(O)c(-c2ccc(O)cc2O)oc2cc(O)cc(O)c12` [morin], on CYP1A2, the “Inhibition of CYP1A2 activity” value was “inhibited”. Moreover, the “Inhibition constant relative to chrysin” value with rat liver microsomes (morin versus chrysin) was 16 fold. In addition, the Ki at rat liver microsomes (read-out: Inhibition constant, ethoxy- and pentoxy-resorufin dealkylation) was 5000 nM. Also, the “Type of inhibition of ethoxy- and pentoxy-resorufin dealkylation” value in the data set on rat liver microsomes is “mix type reversible”. Further, in the data set on CYP3A4, the “Inhibition of CYP3A4 metabolic activity” value is reported as “inhibition”.

On to `O=C1C[C@@H](c2ccccc2)Oc2cc(O)cc(O)c21` [pinocembrin], for which the “Inhibition of CYP3A4 metabolic activity” value in the data set on CYP3A4 is “inhibition”.

Consider `COc1ccc(-c2oc3cc(O)cc(O)c3c(=O)c2O)cc1O` [tamarixetin], for which the “Inhibition of CYP3A4 metabolic activity” value with CYP3A4 was “inhibition”.

On to `COc1ccc(-c2cc(=O)c3c(OC)c(OC)c(OC)c(OC)c3o2)cc1` [tangeretin], for which, on CYP2A6 [1], the “Inhibition of CYP2A6 enzyme activity” value was “inhibited”. Also, the “Type of CYP2A6 inhibition” value on CYP2A6 [1] (concluded from MDI, TDI, DI assays at 1 µM) is recorded as “direct inhibitor”. For the same molecule, the “Inhibition of CYP3A4 metabolic activity” value with CYP3A4 was “inhibition”.

The values above are taken from paper PMC6749521, “The Effect of Flavonoid Aglycones on the CYP1A2, CYP2A6, CYP2C8 and CYP2D6 Enzymes Activity” (Molecules, 2019).
